Laboratory results: patent publication US20220107328A1, “METHODS OF TREATING LIVER DISEASES” (Camp4 Therapeutics Corporation, priority 2018, published 2022)

Assays:
[1] = tested on: phosphorylated S6 (pS6/S6); test: Western blot of phosphorylated S6 in human hepatocytes; assay type: cell-based; conditions: 3 μM; for phosphorylated S6 (pS6/S6) over time (in words): 35 min to 20 hrs, relative to DMSO control; for pS6/S6: human hepatocytes, mTORC1 pathway, time point not stated
Procedure: (§1) Levels of phosphorylated S6, AKT, and NDRG1 proteins were determined as compared to total S6, AKT, and NDRG1 protein. PNPLA3 mRNA expression was quantified and normalized to housekeeping gene GUSB.

[2] = tested on: phosphorylated NDRG1 (pNDRG1/NDRG1); test: Western blot of phosphorylated NDRG1 in human hepatocytes; assay type: cell-based; conditions: 3 μM, mTORC2 pathway, time point not stated
Procedure: as §1

[3] = tested on: phosphorylated 4EBP1 (p4EBP1c (37/46)/4EBP1c); test: Western blot of phosphorylated 4EBP1 in human hepatocytes; assay type: cell-based; conditions: 3 μM, mTORC1 pathway, time point not stated
[4] = tested on: phosphorylated AKT (pAKT/AKT); test: Western blot of phosphorylated AKT in human hepatocytes; assay type: cell-based; conditions: 3 μM; for phosphorylated AKT (pAKT/AKT) over time (in words): 35 min to 20 hrs, relative to DMSO control; for pAKT (473)/AKT: human hepatocytes, mTORC2 pathway, time point not stated
Procedure: as §1

PCSK9 mRNA = test: qRT-PCR of PCSK9 mRNA in primary hepatocytes; assay type: cell-based, human; conditions: donor 4178, 3 μM, relative to GUSB
PNPLA3 mRNA [5] = test: qRT-PCR of PNPLA3 mRNA in human primary hepatic stellate cells; assay type: cell-based; conditions: for Primary Stellate cells PNPLA3 (fold change in mRNA expression): 3 μM, relative to GAPDH; for Relative PNPLA3 mRNA levels RQ: hepatic stellate cells
PNPLA3 mRNA [6] = test: qRT-PCR of PNPLA3 mRNA in compound-treated primary human hepatocytes; conditions: for PNPLA3 mRNA expression level over time (in words) / PNPLA3 mRNA: 3 μM, normalized to GUSB; for PNPLA3 mRNA expression level over time (in words): 35 min to 20 hrs; for Primary Hepatocytes 4178 PNPLA3 (fold change in mRNA expression): donor 4178, 3 μM; for Primary Hepatocytes 4178 PNPLA3 (fold change in mRNA expression) / Primary Hepatocytes 4282 PNPLA3 (fold change in mRNA expression): relative to GUSB; for Primary Hepatocytes 4282 PNPLA3 (fold change in mRNA expression): donor 4282, 3 μM; for PNPLA3 mRNA: human hepatocytes, time point not stated; for Relative PINPLA3 mRNA: hepatocytes
COL1A1 mRNA = test: qRT-PCR of COL1A1 mRNA in human primary hepatic stellate cells; assay type: cell-based; conditions: for Primary Stellate cells COL1A1 (fold change in mRNA expression): 3 μM, relative to GAPDH; for Relative COL1A1 mRNA levels RQ: hepatic stellate cells
Procedure: Cells were plated at a density of 17000 cells/well in a 96-well plate and allowed to adhere overnight. The following day cell culture media was replenished with the indicated concentration(s) of compound for 18 hours. […] Medium was removed after 18 hours and cells were processed for further analysis, e.g. qRT-PCR.
Analysis of the fold changes in expression as measured by qRT-PCR were performed using the technique below. The control was DMSO, and the treatment was the selected compound (CPD). The internal control was GAPDH or B-Actin (or otherwise indicated), and the gene of interest is the target. First, the averages of the 4 conditions were calculated for normalization: DMSO:GAPDH, DMSO:Target, CPD: GAPDH, and CPD:Target. Next, the ΔCT of both control and treatment were calculated to normalize to internal control (GAPDH) using (DMSO:Target)−(DMSO:GAPDH)=ΔCT control and (CPD:Target)−(CPD: GAPDH)=ΔCT experimental. Then, the ΔΔCT was calculated by ΔCT experimental−ΔCT control.
Candidate compounds were tested in stellate cells for their ability to modulate PNPLA3 and COL1A1. Stellate cells were treated with serial dilutions of the compounds, ranging from 0.1 μM to 100 μM. Changes in PNPLA3 (or COL1A1) mRNA levels in stellate cells were analyzed with qRT-PCR.

[7] = tested on: multiple human tumor cell types; conditions: combined with cytotoxic, hormonal, and targeted agents; cited from earlier work
PNPLA3 mRNA [8] = test: qRT-PCR of PNPLA3 mRNA in compound-treated mouse hepatocytes; assay type: cell-based; conditions: mouse hepatocytes, 1 μM, normalized to ACTB
COL1A2 mRNA = test: qRT-PCR of fibrosis related genes in stellate cells, COL1A2; assay type: cell-based, human; conditions: stellate cells P7, 0.5 μM, 18 hours
Procedure: (§2) Stellate cells P7 were treated with 0.5 μM of each of the indicated compounds for 18 hours. Cells were processed for RNA extraction and qRT-PCR as previously described. The assay was repeated in triplicate.

MMP2 mRNA = test: qRT-PCR of fibrosis related genes in stellate cells, MMP2; assay type: cell-based, human; conditions: stellate cells P7, 0.5 μM, 18 hours
Procedure: as §2

TGFB1 mRNA = test: qRT-PCR of fibrosis related genes in stellate cells, TGFB1; assay type: cell-based, human; conditions: stellate cells P7, 0.5 μM, 18 hours
Procedure: as §2

ACTA2 mRNA = test: qRT-PCR of fibrosis related genes in stellate cells, ACTA2; assay type: cell-based, human; conditions: stellate cells P7, 0.5 μM, 18 hours
Procedure: as §2

TIM2 mRNA = test: qRT-PCR of fibrosis related genes in stellate cells, TIM2; assay type: cell-based, human; conditions: stellate cells P7, 0.5 μM, 18 hours
Procedure: as §2

[9] = stellate cells P7, 0.5 μM, 18 hours

SMILES	phosphorylated S6 (pS6/S6) over time (in words) [1]	pS6/S6 [1]	p-NDRG1/NDRG1 [2]	p4EBP1c (37/46)#/4EBP1c [3]	phosphorylated AKT (pAKT/AKT) over time (in words) [4]	pAKT (473)/AKT [4]	Primary Hepatocytes 4178 PCSK9 (fold change in mRNA expression) (PCSK9 mRNA)	Primary Stellate cells PNPLA3 (fold change in mRNA expression) (PNPLA3 mRNA [5])	PNPLA3 mRNA expression level over time (in words) (PNPLA3 mRNA [6])	Primary Hepatocytes 4178 PNPLA3 (fold change in mRNA expression) (PNPLA3 mRNA [6])	Primary Hepatocytes 4282 PNPLA3 (fold change in mRNA expression) (PNPLA3 mRNA [6])	PNPLA3 mRNA (PNPLA3 mRNA [6])	Primary Stellate cells COL1A1 (fold change in mRNA expression) (COL1A1 mRNA)	also measured
Cc1nc(NC(=O)N2CCC[C@H]2C(N)=O)sc1-c1ccnc(C(C)(C)C(F)(F)F)c1 [Alpelisib (BYL719), Alpelisib]	increased at 2 hours, then decreased	1.11	1.11	0.61	largely did not change	0.34	0.67	0.94	largely did not change	0.80	0.69	0.971	1.16	PNPLA3 mRNA expression level over time (in words) (PNPLA3 mRNA [6]; listed as Alpenisib): did not lead to decreased PNPLA3 expression
C[C@@]1(C(=O)Nc2ccc(F)nc2)CCCN1c1nc(Nc2cc(C3CC3)[nH]n2)c2cccn2n1 [BMS-754807]														combination index [7]: < 1.0
CS(=O)(=O)N1CCc2c(-c3cnc(N)nc3)nc(N3CCOCC3)nc21 [CH5132799]	decreased at 1 hour	0.06	0.47	0.40	increased at 3 hours and decreased to pre-treatment levels at 4.5 hours	0.22	0.51	0.56	decreased levels of PNPLA3 expression after 3 hours	0.49	0.60	0.511	0.81	PNPLA3 mRNA expression level over time (in words) (PNPLA3 mRNA [6]; listed as CH51332799): down regulated PNPLA3 gene expression; Relative PINPLA3 mRNA (PNPLA3 mRNA [6]; 0.1 uM): 0.940; Relative PINPLA3 mRNA (PNPLA3 mRNA [6]; 0.3 uM): 0.870; Relative PINPLA3 mRNA (PNPLA3 mRNA [6]; 1 uM): 0.743; Relative PINPLA3 mRNA (PNPLA3 mRNA [6]; 3 uM): 0.491
CC(C)n1nc(-c2ccc3oc(N)nc3c2)c2c(N)ncnc21 [INK-128]							0.98	0.56		1.50	1.63		0.47	Relative PNPLA3 mRNA levels (PNPLA3 mRNA [8]): 0.30 ± 0.14; Relative mRNA COL1A2 (COL1A2 mRNA): 0.30 ± 0.01; Relative mRNA MMP2 (MMP2 mRNA): 1.53 ± 0.05; Relative mRNA TGFB1 (TGFB1 mRNA): 1.20 ± 0.02; Relative mRNA ACTA2 (ACTA2 mRNA): 0.61 ± 0.02; Relative mRNA TIMP2 (TIM2 mRNA): 1.26 ± 0.01; Relative PNPLA3 mRNA levels RQ (PNPLA3 mRNA [5]; 0.01 μM): 0.40; Relative PNPLA3 mRNA levels RQ (PNPLA3 mRNA [5]; 0.1 μM): 0.28; Relative PNPLA3 mRNA levels RQ (PNPLA3 mRNA [5]; 1 μM): 0.58; Relative PNPLA3 mRNA levels RQ (PNPLA3 mRNA [5]; 10 μM): 0.58; Relative mRNA PNPLA3 (PNPLA3 mRNA [5]; [9]): 0.28 ± 0.01; Relative COL1A1 mRNA levels RQ (COL1A1 mRNA; 0.01 μM): 1.05; Relative COL1A1 mRNA levels RQ (COL1A1 mRNA; 0.1 μM): 0.27; Relative COL1A1 mRNA levels RQ (COL1A1 mRNA; 1 μM): 0.32; Relative COL1A1 mRNA levels RQ (COL1A1 mRNA; 10 μM): 0.21; Relative mRNA COL1A1 (COL1A1 mRNA; [9]): 0.23 ± 0.01
